The target of experiment [1] is T1, PRK (Thermosynechococcus vestitus, UniProt Q8DHN2).
T1 sequence (Q8DHN2 1-334): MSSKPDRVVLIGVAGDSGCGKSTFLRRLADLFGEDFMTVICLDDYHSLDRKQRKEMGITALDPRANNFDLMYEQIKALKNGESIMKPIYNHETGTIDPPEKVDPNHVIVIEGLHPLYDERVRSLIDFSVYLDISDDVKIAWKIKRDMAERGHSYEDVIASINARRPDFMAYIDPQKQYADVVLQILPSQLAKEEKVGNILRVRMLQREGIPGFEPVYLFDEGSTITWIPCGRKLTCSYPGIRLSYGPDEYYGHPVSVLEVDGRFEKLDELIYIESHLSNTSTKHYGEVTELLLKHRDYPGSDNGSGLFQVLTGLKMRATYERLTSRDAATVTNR
Briefly: ADP production, coupled assay with ADP-hexokinase. In kind it is biochemical. Conditions: ternary complex reduced with DTT.

For experiment [2], the target named is T2, GAPDH (Thermosynechococcus vestitus, UniProt Q8DIW5).
T2 sequence (Q8DIW5 1-337): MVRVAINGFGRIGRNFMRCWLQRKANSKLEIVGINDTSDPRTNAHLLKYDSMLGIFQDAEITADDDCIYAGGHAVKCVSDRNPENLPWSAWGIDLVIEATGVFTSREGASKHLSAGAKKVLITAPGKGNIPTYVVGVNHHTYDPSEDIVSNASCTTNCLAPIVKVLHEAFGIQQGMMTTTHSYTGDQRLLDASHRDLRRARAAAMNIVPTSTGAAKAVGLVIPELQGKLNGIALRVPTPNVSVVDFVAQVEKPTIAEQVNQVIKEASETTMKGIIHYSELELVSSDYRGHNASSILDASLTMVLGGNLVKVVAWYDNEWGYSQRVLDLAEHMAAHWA
As to the kind of experiment: X-ray crystal structure. The experiment is classed as binding.

For experiment [3], the target named is T3, GAPDH-CP12 (Thermosynechococcus vestitus, UniProt Q8DIW5).
T3 sequence (Q8DIW5 1-337): T2 sequence (Q8DIW5 1-337)
T3 sequence (Q8DHX3 1-75 partner): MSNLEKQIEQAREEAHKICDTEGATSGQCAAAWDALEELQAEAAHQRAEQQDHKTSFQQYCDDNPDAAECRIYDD
Briefly: X-ray crystal structure. In kind it is binding. To be noted: proximal (CP12-occupied) and distal sites.

As for `O=C(CO)[C@H](O)[C@H](O)COP(=O)(O)O` [ribulose 5-phosphate], in experiment [1] (co-substrate ATP), the “ADP production, coupled assay with ADP-hexokinase” value is “measuring ADP production from ATP and ribulose 5-phosphate (Ru5P)”. Take `Nc1ncnc2c1ncn2[C@@H]1O[C@H](COP(=O)(O)OP(=O)(O)OP(=O)(O)O)[C@@H](O)[C@H]1O` [ATP]: the “ADP production, coupled assay with ADP-hexokinase” value in experiment [1] (co-substrate ribulose 5-phosphate) is “measuring ADP production from ATP and ribulose 5-phosphate (Ru5P)”. In the case of `NC(=O)c1ccc[n+]([C@@H]2O[C@H](COP(=O)(O)OP(=O)(O)OC[C@H]3O[C@@H](n4cnc5c(N)ncnc54)[C@H](O)[C@@H]3O)[C@@H](O)[C@H]2O)c1` [NAD^+], the X-ray crystal structure result was “GAPDH-NAD^+, GAPDH-NADP^+” in experiment [2] (NAD+ bound from E. coli expression); “The CP12-bound (proximal) site makes extensive contacts with both NAD^+ and GAPDH” in experiment [3].

As to `NC(=O)c1ccc[n+]([C@@H]2O[C@H](COP(=O)(O)OP(=O)(O)OC[C@H]3O[C@@H](n4cnc5c(N)ncnc54)[C@H](OP(=O)(O)O)[C@@H]3O)[C@@H](O)[C@H]2O)c1` [NADP^+], in experiment [2] (NAD+ exchanged for NADP+ by turnover), the X-ray crystal structure entry was “this could be exchanged for NADP^+ by turning over the enzyme”.

The values above are taken from publication PMC6800369 (Proceedings of the National Academy of Sciences of the …, 2019).
